Each structure is given as a SMILES string. Like-named read-outs stand apart in the source and are kept apart here.

For data set [1] the following is noted: cited from earlier work.
A further data set deals with T1, GST-fusion FXR-LBD (Homo sapiens, UniProt Q96RI1).
T1 construct: 10 nM of purified GST-tagged FXR-LBD protein
T1 sequence (Q96RI1 262-486 limits assumed): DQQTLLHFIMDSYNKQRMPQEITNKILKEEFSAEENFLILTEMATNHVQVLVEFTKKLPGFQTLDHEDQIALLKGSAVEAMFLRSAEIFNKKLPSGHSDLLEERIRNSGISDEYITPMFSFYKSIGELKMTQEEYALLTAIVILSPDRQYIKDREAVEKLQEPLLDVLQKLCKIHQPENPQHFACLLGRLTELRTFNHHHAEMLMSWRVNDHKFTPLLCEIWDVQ
In words: Alpha Screen coactivator (SRC-1 peptide) recruitment assay. The format is biochemical. To be noted: recruitment of SRC-1 co-activator peptide, Alfa Screen, Table 1; for Efficacy: 6-ECDCA = 100. As to the method: Activation of FXR was determined by Alpha Screen Technology in a Coactivator Recruitment Assay. Anti-GST-coated acceptor beads were used to capture the GST-fusion FXR-LBD, whereas the biotinylated-SRC-1 peptide was captured by the streptavidin donor beads. Upon illumination at 680 nm, chemical energy is transferred from donor to acceptor beads across the complex streptavidin-donor/[…]-LBD/anti-GST-acceptor and a signal is produced. The assay was performed in white, low-volume, 384-well Optiplates (PerkinElmer) using a final volume of 25 μL containing final concentrations of 10 nM of purified GST-tagged FXR-LBD protein, 30 nM biotinylated SRC-1 peptide, 20 μg/mL anti-GST acceptor beads, and 10 μg/mL of streptavidin donor bead (PerkinElmer). The assay buffer contained 50 mM Tris (pH 7.4), 50 mM KCl and 1 mM DTT. The stimulation times with 1 μL of tested compound (dissolved in 50% DMSO/H2O) were fixed to 30 min at room temperature. The concentration of DMSO in each well was maintained at a final concentration of 2%. After the addition of the detection mix (acceptor and donor beads), the plates were incubated in the dark for 3 h at room temperature and then were read in an Envision microplate analyzer (PerkinElmer).

A short description of data set [2]: In vivo metabolic profile of compound 2 in mice (LC-MS). To be noted: 50 mg/kg oral of compound 2, LC-MS.
The next data set addresses T2, hFXR (Homo sapiens, UniProt Q96RI1).
T2 construct: expressed in transfected cells; host or cells: HepG2
T2 sequence (Q96RI1 1-486): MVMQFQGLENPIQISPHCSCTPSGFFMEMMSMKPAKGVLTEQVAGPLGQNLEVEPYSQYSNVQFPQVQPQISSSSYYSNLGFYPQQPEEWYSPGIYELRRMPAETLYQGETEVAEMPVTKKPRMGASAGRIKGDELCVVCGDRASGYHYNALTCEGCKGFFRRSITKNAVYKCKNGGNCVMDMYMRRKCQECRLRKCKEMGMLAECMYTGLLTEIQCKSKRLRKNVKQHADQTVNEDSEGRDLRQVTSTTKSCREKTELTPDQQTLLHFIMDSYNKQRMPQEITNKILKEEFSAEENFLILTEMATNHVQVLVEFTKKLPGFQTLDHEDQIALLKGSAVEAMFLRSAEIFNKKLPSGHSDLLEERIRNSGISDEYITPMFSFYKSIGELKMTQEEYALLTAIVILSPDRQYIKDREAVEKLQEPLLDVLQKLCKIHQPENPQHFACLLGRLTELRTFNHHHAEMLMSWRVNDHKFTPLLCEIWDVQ
T2 sequence (P19793 1-462 partner): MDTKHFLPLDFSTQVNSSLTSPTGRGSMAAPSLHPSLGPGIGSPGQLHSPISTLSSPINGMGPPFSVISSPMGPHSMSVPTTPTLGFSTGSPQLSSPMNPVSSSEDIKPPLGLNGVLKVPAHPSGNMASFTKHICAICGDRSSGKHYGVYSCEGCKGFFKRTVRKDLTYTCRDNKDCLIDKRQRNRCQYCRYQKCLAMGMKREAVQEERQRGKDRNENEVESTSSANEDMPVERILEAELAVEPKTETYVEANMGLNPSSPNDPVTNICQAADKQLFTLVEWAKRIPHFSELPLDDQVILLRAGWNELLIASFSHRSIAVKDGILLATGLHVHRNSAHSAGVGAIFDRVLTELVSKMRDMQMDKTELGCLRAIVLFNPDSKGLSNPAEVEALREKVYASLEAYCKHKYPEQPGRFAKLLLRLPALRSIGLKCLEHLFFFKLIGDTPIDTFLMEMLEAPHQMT
The experiment in a line: FXR transactivation on HepG2 cells (luciferase reporter). The format is cell-based. As to the method:
HepG2 (HB, 8065 from ATCC), an immortalized human epatocarcinoma cell line, was cultured and maintained at 37°C and 5% CO2 in E-MEM additioned with 10% FBS, 1% glutamine, and 1% penicillin/streptomycin. For FXR mediated transactivation, HepG2 cells were plated at 5 × 10^4 cells/well in a 24 well plate. Cells were transfected with 200 ng of the reporter vector p(hsp27)-TK-LUC containing a FXR response element (IR1) cloned from the promoter of heat shock protein 27 (hsp27), 100 ng of pSG5-FXR, 100 ng of pSG5-RXR, and 100 ng of pGL4.70 (Promega), a vector encoding the human Renilla gene. For GPBAR1 mediated transactivation, HepG2 cells were plated at 5 × 10^4 cells/well in a 24 well-plate and transfected with 200 ng of pGL4.29 (Promega), a reporter vector containing a cAMP response element (CRE) that drives the transcription of the luciferase reporter gene luc2P, with 100 ng of pCMVSPORT6-human GPBAR1, and with 100 ng of pGL4.70 Renilla. […]. TLCA (10 μM) was used as a positive control for GPBAR1 activity.
HepG2 cells were transfected as described above and then treated with increasing concentrations of compounds. At 18 h post stimulations, cellular lysates were assayed for luciferase and Renilla activities using the Dual-Luciferase Reporter assay system (E1980, Promega). Luminescence was measured using Glomax 20/20 luminometer (Promega). Luciferase activities were normalized with Renilla activities.
A general note: In a reporter assay the amount or activity of a reporter protein is the signal.

Another data set deals with T3, human GPBAR1 (Homo sapiens, UniProt Q8TDU6).
T3 construct: expressed in transfected cells; host or cells: HepG2
T3 sequence (Q8TDU6 1-330): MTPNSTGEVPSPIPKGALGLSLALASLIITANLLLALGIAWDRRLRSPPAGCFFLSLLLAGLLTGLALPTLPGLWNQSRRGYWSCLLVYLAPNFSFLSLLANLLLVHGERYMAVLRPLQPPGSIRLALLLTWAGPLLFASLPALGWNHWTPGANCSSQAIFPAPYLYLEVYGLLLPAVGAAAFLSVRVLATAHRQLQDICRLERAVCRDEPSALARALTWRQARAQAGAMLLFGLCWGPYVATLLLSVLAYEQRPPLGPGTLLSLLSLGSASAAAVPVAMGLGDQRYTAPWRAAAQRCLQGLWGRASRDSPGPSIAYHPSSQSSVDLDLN
The experiment in a line: GPBAR1 transactivation on HepG2 cells (CRE luciferase reporter). The class given is cell-based. To be noted: compounds at 1 and 10 μM, TLCA 10 μM positive control. As to the method:
For FXR mediated transactivation, HepG2 cells were plated at 5 × 10^4 cells/well in a 24 well plate. Cells were transfected with 200 ng of the reporter vector p(hsp27)-TK-LUC containing a FXR response element (IR1) cloned from the promoter of heat shock protein 27 (hsp27), 100 ng of pSG5-FXR, 100 ng of pSG5-RXR, and 100 ng of pGL4.70 (Promega), a vector encoding the human Renilla gene. For GPBAR1 mediated transactivation, HepG2 cells were plated at 5 × 10^4 cells/well in a 24 well-plate and transfected with 200 ng of pGL4.29 (Promega), a reporter vector containing a cAMP response element (CRE) that drives the transcription of the luciferase reporter gene luc2P, with 100 ng of pCMVSPORT6-human GPBAR1, and with 100 ng of pGL4.70 Renilla. […] TLCA (10 μM) was used as a positive control for GPBAR1 activity.

The mark [3] stands for this setting: PBC patients, ref Mason et al., 2010.

With `CC[C@H]1[C@@H](O)[C@@H]2[C@H](CC[C@]3(C)[C@@H]([C@H](C)CCC(=O)O)CC[C@@H]23)[C@@]2(C)CC[C@@H](O)C[C@@H]12` [6-ECDCA], in data set [1] (setting [3]), the “patients with drug discontinuation caused by pruritus” value is listed as 40% and the “patients with pruritus (itching)” value is 50–60%. Moreover, the “patients with pruritus (itching)” value in data set [1] (patients with NASH, ref Neuschwander-Tetri et al., 2015) is 23%.
Regarding `CCC1C(=O)C2C3CCC(C(C)CCC(=O)O)C3(C)CCC2C2(C)CCC(N=[N+]=[N-])CC12` (stereo not shown) [compound 1], at GST-fusion FXR-LBD, the Efficacy is 32.
As to `CC[C@H]1[C@@H](O)C2C3CC[C@H]([C@H](C)CCC(=O)NCCS(=O)(=O)O)[C@@]3(C)CCC2[C@@]2(C)CC[C@H](N=[N+]=[N-])C[C@@H]12` (stereo partly shown) [compound 2a], the “recovery in bile and plasma after administration of compound 2” value in data set [2] is “efficiently recovered in bile and in plasma”. This compound also registered an EC50 on hFXR (10 nM to 25 μM, 18 h) of 3.95 µM. For the same compound, at hFXR (dose-response), the “agonist activity toward FXR” value is on record as “full agonist activity”.
For the compound `CCC1C(O)C2C3CCC(C(C)CCCO)C3(C)CCC2C2(C)CCC(N=[N+]=[N-])CC12` (stereo not shown) [compound 3], at GST-fusion FXR-LBD, it took 0.55 ± 0.08 µM to reach a half-maximal effect (EC50) and the Efficacy is listed as 55.
In turn, `CCC1C(O)C2C3CCC(C(C)CCCO)C3(C)CCC2C2(C)CCC(N=[N+]=[N-])CC12` (stereo not shown) [compound 4] had an Efficacy at GST-fusion FXR-LBD of 39.
On the same count and under the same terms, then `CCC1C(=O)C2C3CCC(C(C)CCC(=O)O)C3(C)CCC2C2(C)CCC(N=[N+]=[N-])CC12` (stereo not shown) [compound 5], with 24.
On to `CCC1C(O)C2C3CCC(C(C)CCC(=O)O)C3(C)CCC2C2(C)CCC(N=[N+]=[N-])CC12` (stereo not shown) [compound 6], for which, at GST-fusion FXR-LBD, a half-maximal effect (EC50) was put at 1.38 ± 0.35 µM and the Efficacy is given as 61.
At GST-fusion FXR-LBD, `CCC1C(O)C2C3CCC(C(C)CCCO)C3(C)CCC2C2(C)CCC(N=[N+]=[N-])CC12` (stereo not shown) [compound 7] showed an EC50 of 1.8 ± 0.21 µM and an Efficacy of 57.
Take `CCC1C(O)C2C3CCC(C(C)CCCO)C3(C)CCC2C2(C)CCC(N=[N+]=[N-])CC12` (stereo not shown) [compound 8]: on GST-fusion FXR-LBD, the Efficacy turned out to be 49.
In the case of `CCC1C(O)C2C3CCC(C(C)CCCO)C3(C)CCC2C2(C)CCC(N)CC12` (stereo not shown) [compound 11], at human GPBAR1, the GPBAR1 transactivation result is recorded as “residual activity”.
Consider `CCC1C(=O)C2C3CCC(C(C)CCC(=O)O)C3(C)CCC2C2(C)CCC(N)CC12` (stereo not shown) [compound 13], for which the GPBAR1 transactivation result at human GPBAR1 is reported as “residual activity”.
Consider `CCC1C(O)C2C3CCC(C(C)CCC(=O)O)C3(C)CCC2C2(C)CCC(N)CC12` (stereo not shown) [compound 14], for which, at human GPBAR1, the GPBAR1 transactivation result is given as “residual activity”.

In general, EC50 refers to the concentration needed to bring the measured effect to its halfway point. The low end stands for greater potency, the high end for weaker potency.

Source of the values: article PMC5371667, “Targeting Bile Acid Receptors: Discovery of a Potent and Selective Farnesoid X Receptor Agonist as a New Lead in the Pharmacological Approach to Liver Diseases” (Frontiers in Pharmacology, 2017).
